# Experimental data reported in ChEMBL document CHEMBL4680139, “Antiproliferative activity of diarylnaphthylpyrrolidine derivative via dual target inhibition” (Eur J Med Chem, 2020).
# Legend:
# MDA-MB-231 = test: Induction of apoptosis in human MDA-MB-231 cells assessed as proportion of viable cells at 10.42 uM measured after 24 hrs by Annexin V-FITC/propidium iodide staining based flow cytometry (reference value: 99%); format: functional
# [1] = Toxicity in Swiss albino mouse assessed as total bilirubin level in serum at 50 mg/kg, po administered as single dose (reference value: 0.62 +/-0.05 mg/dl); format: organism-based; conditions: in vivo
# [2] = Toxicity in Swiss albino mouse assessed as cholesterol level in serum at 5 mg/kg, po administered as single dose (reference value: 103.62 +/-7.45 mg/dl); format: organism-based; conditions: in vivo
# [3] = Toxicity in Swiss albino mouse assessed as WBC level in blood at 50 mg/kg, po administered as single dose (reference value: 17.06 +/- 1.33x10^3/mm3); format: organism-based; conditions: in vivo
# MCF7 [4] = test: Antiproliferative activity against human MCF-7 cells assessed as proportion of dead cells at 25 ug/ml measured after 3 weeks by crystal violet staining based soft agar colony formation assay; format: functional; conditions: dose 25 µg/ml
# [5] = Toxicity in Swiss albino mouse assessed as triglyceride level in serum at 50 mg/kg, po administered as single dose (reference value: 78.34 +/-2.99 mg/dl); format: organism-based; conditions: in vivo
# MCF7 [6] = test: Induction of apoptosis in human MCF-7 cells assessed as proportion of late apoptotic cells at 8.66 uM measured after 24 hrs by Annexin V- FITC/propidium iodide staining based flow cytometry (reference value: 0.1%); format: functional
# MCF7 [7] = test: Antiproliferative activity against human MCF-7 cells assessed as proportion of dead cells at 6.25 ug/ml measured after 3 weeks by crystal violet staining based soft agar colony formation assay; format: functional; conditions: dose 6.25 µg/ml
# MCF7 [8] = test: Induction of apoptosis in human MCF-7 cells assessed as proportion of early apoptotic cells at 4.33 uM measured after 24 hrs by Annexin V- FITC/propidium iodide staining based flow cytometry (reference value: 0%); format: functional
# MCF7 [9] = test: Induction of apoptosis in human MCF-7 cells assessed as proportion of viable cells at 8.66 uM measured after 24 hrs by Annexin V- FITC/propidium iodide staining based flow cytometry (reference value: 94.6%); format: functional
# [10] = Toxicity in Swiss albino mouse assessed as WBC level in blood at 300 mg/kg, po administered as single dose (reference value: 17.06 +/- 1.33x10^3/mm3); format: organism-based; conditions: in vivo
smiles,measurement,setting,value
COc1ccc(C(c2ccccc2OCCN2CCCC2)c2cccc3ccccc23)c(OC)c1OC (stereo unspecified),Activity,MDA-MB-231,49.4%
same,Activity,[1],0.62 mg/dL
same,Activity,[2],111.17 mg/dL
same,Activity,[3],13.46 10^3/mm3
same,Activity,MCF7 [4],79.36%
same,Activity,[5],94.42 mg/dL
same,Activity,MCF7 [6],25.8%
same,Activity,MCF7 [7],29.23%
same,Activity,MCF7 [8],0%
same,Activity,MCF7 [9],61.8%
same,Activity,[10],7.19 10^3/mm3
